This note sets out measurements from US20260364068A1, “ANTIVIRAL USE OF HETEROARYL DERIVATIVE COMPOUND” (UIF (University Industry Foundation), Yonsei University, priority 2022, published 2026).

Format in all cases: cell-based
The test system of data set [1] is Severe Acute Respiratory Syndrome Coronavirus Type 2. Put plainly: microbe, parasite or virus in culture. The settings on record: Calu-3, 10 uM, virus strain NCCP-43388, 48 hours, read-out: Virus replication inhibition efficacy.
For another data set, the target named is T1, human ANO6 (variant 5) (Homo sapiens, UniProt Q4KMQ2).
T1 construct: expressed in transfected cells; host or cells: Fisher rat thyroid (FRT) cells
T1 sequence (Q4KMQ2 1-931 isoform Q4KMQ2-2): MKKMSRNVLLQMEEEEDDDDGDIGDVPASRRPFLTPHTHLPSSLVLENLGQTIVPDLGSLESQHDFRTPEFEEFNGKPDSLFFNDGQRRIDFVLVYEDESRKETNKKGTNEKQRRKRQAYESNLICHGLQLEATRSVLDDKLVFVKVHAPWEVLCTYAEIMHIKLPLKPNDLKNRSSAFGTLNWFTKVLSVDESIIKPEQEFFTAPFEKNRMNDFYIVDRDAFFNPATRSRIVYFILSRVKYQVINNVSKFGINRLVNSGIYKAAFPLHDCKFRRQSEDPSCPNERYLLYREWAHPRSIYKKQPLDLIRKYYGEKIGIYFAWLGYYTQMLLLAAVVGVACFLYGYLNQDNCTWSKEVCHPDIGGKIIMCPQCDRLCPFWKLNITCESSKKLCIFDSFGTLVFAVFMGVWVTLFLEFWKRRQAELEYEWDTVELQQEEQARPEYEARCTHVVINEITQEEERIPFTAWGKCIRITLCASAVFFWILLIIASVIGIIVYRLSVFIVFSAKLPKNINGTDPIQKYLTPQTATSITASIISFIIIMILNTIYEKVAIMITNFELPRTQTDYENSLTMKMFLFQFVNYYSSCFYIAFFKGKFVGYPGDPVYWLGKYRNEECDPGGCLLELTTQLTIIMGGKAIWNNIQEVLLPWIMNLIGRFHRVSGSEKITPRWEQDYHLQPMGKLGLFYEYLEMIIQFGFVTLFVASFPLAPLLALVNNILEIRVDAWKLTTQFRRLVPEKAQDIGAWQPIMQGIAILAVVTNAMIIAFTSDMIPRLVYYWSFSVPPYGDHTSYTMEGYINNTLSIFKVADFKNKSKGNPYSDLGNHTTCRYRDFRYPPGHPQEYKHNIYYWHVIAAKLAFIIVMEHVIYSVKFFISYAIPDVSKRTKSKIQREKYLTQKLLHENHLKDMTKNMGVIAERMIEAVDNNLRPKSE
Kind of data set: Lact C2 assay (phosphatidylserine externalization scramblase function). Particulars: FRT cells expressing human ANO6, ionomycin 10 μM, read-out: % Inhibition (phosphatidylserine externalization inhibitory activity); for inhibition at 0.05 µM: 50 nM. The method, then: Experimental Example 2: Lact C2 Assay (Measuring Phosphatidylserine Externalization Scramblase Function)
Ionomycin (Alomonelab, cat. #I-700), DAPI (Sigma-Aldrich, cat. #D8417), paraformaldehyde (Biosesang, cat. #P2031), Lionheart FX automated fluorescence microscope (BioTek), Gen5™ software program (BioTek), and Image J analysis software program.
Fisher rat thyroid (FRT) cells expressing human ANO6 (variant 5; GenBank accession no. NP_001191732.1) were cultured at 37 °C under 5% CO2 conditions in DMEM/Ham's F-12 (1:1) medium supplemented with 10% Fetal Bovine Serum, 2 mM […], 100 units/mL penicillin, and 100 μg/mL streptomycin.
Fischer Rat Thyroid (FRT) cells (2×10^4 cells/well) expressing human ANO6 (variant 5) were cultured in a 96-well microplate for 24 hours. After the incubation, the cells were treated with compounds dissolved in DMSO to 1% v/v in each well at each concentration (50 nM, 100 nM, and 1 μM) and reacted for 10 minutes. Thereafter, each well was treated with ionomycin to a final concentration of 10 μM, allowed to react for 10 minutes, and then washed with 200 μL PBS. After washing, each well was treated with 50 μL of Lactadherin-C2 (Lact-C2)-GFP mixed in DMEM medium to a final concentration of 500 nM to stain phosphatidylserine, and cultured at 37 °C for 10 minutes. After completion of the reaction, the cells were washed with 200 μL PBS, and fixed with 4% paraformaldehyde for 5 minutes at room temperature. For morphological analysis, DAPI solution was added, and the cells were incubated for 15 minutes, followed by washing with PBS. The fluorescence intensity of Lact-C2-GFP bound to phosphatidylserine on the cell surface was measured using an automated fluorescence microscope. For quantitative analysis of the fluorescence intensity of Lact-C2-GFP, BioTek Gen5™ software and Image J analysis software programs were used.
Phosphatidylserine externalization inhibitory activity (%) by the compound was calculated through the following analysis method. Specifically, the background fluorescence value was subtracted from the measured Lact-C2-GFP fluorescence value, and the fluorescence value of the ionomycin non-treatment group and the ionomycin-treatment group in the same row where each test group was located in a 96-well microplate were calculated. In order to calculate the inhibitory activity (%) by the compound, the relative inhibitory activity was calculated by setting the compound and ionomycin non-treatment group to 100% inhibitory activity and the ionomycin alone treatment group to 0% inhibitory activity. To derive the results, the test was repeated three times, and the average values of the results were classified according to the range below and shown in Table 4 below (A: >60% inhibition, B: 30 to 60% inhibition, N/A: no test).

In data set [2] the test system is Severe Acute Respiratory Syndrome Coronavirus Type 2. Kind of data set: microbe, parasite or virus in culture. The settings on record: Vero, 10 uM, virus strain NCCP-43388, 48 hours, read-out: Virus replication inhibition efficacy.
The nature of data set [3]: Cell viability measurement (MTS), Calu-3 cells. The settings on record: human, 10 μM. The gist of the method: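 Calu-3 cells at about 20% confluency treated with compounds at 1, 3 and 10 μM (0.5% v/v DMSO) for 48 h at 37 °C. MTS added for 1 h; A490 minus A690 background, normalized to DMSO control as 100%; mean of 2–6 repeats, binned into viability ranges.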

Like-named read-outs stand apart in the source and are kept apart here.

On to `CN(Cc1ccccc1)c1ccc2nc(-c3cccc(Nc4ccc(-c5cccnn5)cc4)c3)[nH]c2c1` [Example 280, N-benzyl-N-methyl-2-(3-((4-(pyridazin-3-yl)phenyl)amino)phenyl)-1H-benzo[d]imidazol-6-amine], for which the inhibition at 10 µM in data set [1] was greater than 60%. In addition, on human ANO6 (variant 5), the inhibition at 0.05 µM was 30 to 60% and the inhibition at 1 µM is greater than 60%. The inhibition at 10 µM in data set [2] is greater than 60%.

As to `FC(F)Oc1cc2[nH]c(-c3cccc(Nc4ncc(-c5ccccn5)cn4)c3)nc2cn1` [Example 329, N-(3-(6-(difluoromethoxy)-1H-imidazo[4,5-c]pyridin-2-yl)phenyl)-5-(pyridin-2-yl)pyrimidin-2-amine], at human ANO6 (variant 5), the inhibition at 0.05 µM was greater than 60% and the inhibition at 1 µM is greater than 60%. In addition, the viability at 48 h, 10 µM in data set [3] fell in the range of 50 to 80%.

On to `Fc1cc2[nH]c(-c3cccc(Nc4cnc(-c5ccccn5)cn4)c3)nc2cn1` [Example 330, N-(3-(6-fluoro-1H-imidazo[4,5-c]pyridin-2-yl)phenyl)-5-(pyridin-2-yl)pyrazin-2-amine], for which, at human ANO6 (variant 5), the inhibition at 1 µM was greater than 60%. The viability at 48 h, 10 µM in data set [3] is greater than 80%.

`FC(F)Oc1cc2[nH]c(-c3cccc(Nc4ccc(-c5cccnn5)cc4)c3)nc2cn1` [Example 331, 3-(6-(difluoromethoxy)-1H-imidazo[4,5-c]pyridin-2-yl)-N-(4-(pyridazin-3-yl)phenyl)aniline]: at human ANO6 (variant 5), the inhibition at 0.05 µM lay within 30 to 60% and the inhibition at 1 µM is greater than 60%. In data set [3], this compound came in with a viability at 48 h, 10 µM greater than 80%.

Consider `Fc1cc2nc(-c3cccc(Nc4ncc(-c5cscn5)cn4)c3)[nH]c2cc1F` [Example 332, N-(3-(5,6-difluoro-1H-benzo[d]imidazol-2-yl)phenyl)-5-(thiazol-4-yl)pyrimidin-2-amine], for which, on human ANO6 (variant 5), the inhibition at 0.05 µM was greater than 60% and the inhibition at 1 µM is greater than 60%. In data set [3], the viability at 48 h, 10 µM is greater than 80%.

Regarding `FC(F)Oc1cc2[nH]c(-c3cccc(Nc4cnc(-c5ccccn5)cn4)c3)nc2cn1` [Example 336, N-(3-(6-(difluoromethoxy)-1H-imidazo[4,5-c]pyridin-2-yl)phenyl)-5-(pyridin-2-yl)pyrazin-2-amine], at human ANO6 (variant 5), the inhibition at 0.05 µM is greater than 60% and the inhibition at 1 µM is greater than 60%. In data set [3], this compound showed a viability at 48 h, 10 µM greater than 80%.
